Data: ChEMBL document CHEMBL1770096, “Structure-activity relationships of trans-substituted-propenoic acid derivatives on the nicotinic acid receptor HCA2 (GPR109A)” (Bioorg Med Chem Lett, 2011)

Molecular target: Hydroxycarboxylic acid receptor 2 (Homo sapiens) (UniProt Q8TDS4)
Test: Displacement of [3H]nicotinic acid from human GPR109a receptor expressed in human HEK293T cells at 10 uM by liquid scintillation counting
Type: cell-based
Conditions: HEK-293T

Hydroxycarboxylic acid receptor 2 (Homo sapiens), sequence (Q8TDS4 whole entry): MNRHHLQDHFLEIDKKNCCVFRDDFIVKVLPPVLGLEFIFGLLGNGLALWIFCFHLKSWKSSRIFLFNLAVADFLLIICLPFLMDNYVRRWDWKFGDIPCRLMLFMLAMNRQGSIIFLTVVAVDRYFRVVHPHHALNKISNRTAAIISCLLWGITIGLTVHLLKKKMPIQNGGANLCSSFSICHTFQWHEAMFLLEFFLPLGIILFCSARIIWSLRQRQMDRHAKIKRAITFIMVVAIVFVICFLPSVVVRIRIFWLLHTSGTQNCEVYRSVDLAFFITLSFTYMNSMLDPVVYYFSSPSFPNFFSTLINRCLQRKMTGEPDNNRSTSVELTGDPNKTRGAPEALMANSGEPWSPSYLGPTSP

| Activity [%] | Compound |
| --- | --- |
| 0 | COc1cc(/C=C/C(=O)O)ccc1O |
| 10 | O=C(O)/C=C/C(=O)O |
